Test results reported in patent US9198894B2, “Uses of 15-benzylidene-14-deoxy-11,12-didehydroandrographolide derivatives in the preparation of antineoplastic drugs” (Zhengzhou University, priority 2010, dated 2015).
Where two headings read alike, the source gives them in different places. Marks after values point to notes of the source that are not given here.

Columns and labels:
[1] = system: Hela human cervical carcinoma; assay: Colony formation assay, Hela; format: cell-based; details: Hela
Method: (§1) 1) Cell lines: Cell lines of SGC-7901 human gastric cancer, A549 human lung adenocarcinoma and Hela human cervical carcinoma were purchased from the Type Culture Collection of the Chinese Academy of Sciences, Shanghai, China.
(§2) 3) Method: Colony formation assay was used. The cells were trypsinized to generate a single-cell suspension and seeded in a 6-well plate at a density of 100 cells/well, then drug-containing medium was added to the well to make the final concentration of compound to 0, 1.25, 2.50, 5.00, 7.50, 10.00 μmol/L, respectively. The experiments were performed in duplicate, and the cells were cultured at 37 in a humidified atmosphere with 5% CO2. Terminate cell culture when the clones can be seen in the culture plate, then remove the culture medium, and wash twice with PBS, fix the cells with methanol (5 ml/well) for 15 min and stain the cells with hematoxylin-eosin stain. The number of clones which comprised more than 50 cells was counted under a TS100-F-PH microscope (Nikon Company, Japan). Calculate relative colony formation ratio (%) and the IC50 values. Relative colony formation ratio (%)=(colony number of drug-administration well/colony number of control well)×100%.

[2] = system: SGC-7901 human gastric adenocarcinoma cells; assay: Wound healing (two-dimensional migration) assay, SGC-7901; format: cell-based; details: SGC-7901, 10.00 μmol/l, 36 h (FIG. 1D)
Method: (§3) 1) Cell lines: Cell lines of 5637 human bladder carcinoma, Eca-109 human esophageal carcinoma, HT29 human colon cancer, SGC-7901 human gastric cancer, A549 human lung adenocarcinoma and PC-3 human prostate carcinoma were purchased from the Type Culture Collection of the Chinese Academy of Sciences, Shanghai, China.
3) Methods: The cells were trypsinized to generate a single-cell suspension and seeded in 96-well plates (200 μl/well), and incubated with medium containing 10% fetal bovine serum at 37 in a humidified atmosphere with 5% CO2. Following a 24 h incubation, the cells were starved for an additional 12 h in low-serum media (1% FBS). The cultures of Eca-109, HT29, 5637, SGC-7901, A549 and PC-3 were then scratched away with a 200-μl plastic pipette tip and rinsed twice with PBS to remove wound-derived loose and dislodged cells. […] The average scraped area in each well under each treatment condition was measured, and the percentage of inhibition against cell migration was calculated. % of inhibition=1−(A0−At)/(A′0−A′t)×100%, where, A0 and At are the areas of wound with compound treatment measured immediately and 24 or 36 h post-injury, respectively; A′0 and A′t are the areas of wound without compound treatment measured immediately and 24 or 36 h post-injury, respectively.

[3] = system: ECV304 human vascular endothelial cells; assay: Two-dimensional migration of ECV304 (wound healing); format: cell-based; details: 10.00 μmol/L (FIG. 2A)
[4] = system: A549 human lung adenocarcinoma; assay: Colony formation assay, A549; format: cell-based
Method: as §1, §2

[5] = system: SGC-7901 human gastric cancer; assay: Colony formation assay, SGC-7901; format: cell-based
Method: as §1, §2

[6] = system: 5637 human urinary bladder cancer cells; assay: Wound healing (two-dimensional migration) assay, 5637; format: cell-based; details: 5637, 10.00 μmol/l, 24 h (FIG. 1C)
Method: as §3
(§4) 3) Methods: The cells were trypsinized to generate a single-cell suspension and seeded in 96-well plates (200 μl/well), and incubated with medium containing 10% fetal bovine serum at 37 in a humidified atmosphere with 5% CO2. Following a 24 h incubation, the cells were starved for an additional 12 h in low-serum media (1% FBS). The cultures of Eca-109, HT29, 5637, SGC-7901, A549 and PC-3 were then scratched away with a 200-μl plastic pipette tip and rinsed twice with PBS to remove wound-derived loose and dislodged cells. The cells were cultured in replaced medium without or with compounds at final concentrations of 0, 2.50, 5.00 and 10.00 μmol/L, respectively. At least seven randomly selected views along the scraped line in each well were photographed immediately and 24 h and 36 h after incubation using a digital camera at 50× magnification. The average scraped area in each well under each treatment condition was measured, and the percentage of inhibition against cell migration was calculated. % of inhibition=1−(A0−At)/(A′0−A′t)×100%, where, A0 and At are the areas of wound with compound treatment measured immediately and 24 or 36 h post-injury, respectively; A′0 and A′t are the areas of wound without compound treatment measured immediately and 24 or 36 h post-injury, respectively.

[7] = system: IL-1β; format: in vivo, mouse; details: C57BL/6 mice, mean ± s, n = 5
[8] = system: Eca-109 human esophageal carcinoma cells; assay: Wound healing (two-dimensional migration) assay, Eca-109; format: cell-based; details: Eca-109, 10.00 μmol/l, 24 h (FIG. 1A)
Method: as §3, §4

[9] = system: B16-F10 mouse melanoma cells; format: in vivo; details: B16-F10, C57BL/6 mice; for Lung index / Nodule number (melanoma nodules in lungs): mean ± s, n = 5
Method: 1) Animals: A total of 20 C57BL/6 male mice of clean grade [Number of Animal License: SCXK (Xiang) 2009-0004], weighing 18-22 g, were purchased from Hunan Slca Jingda Experimental Animal Center Company, Ltd., China.
2) Cells: B16-F10 mouse melanoma cells were purchased from Nanjing KeyGen Biotech. Co. Ltd., China.
(§5) 4) Method: B16-F10 cells in logarithmic growth phase were trypsinized, then resuspended in RPMI1640 medium containing 10% fetal bovine serum and centrifuged at 1000 rpm for 5 min. The supernatant was removed and sterile PBS was added to prepare single-cell suspension (10^7/mL). The murine melanoma lung metastasis model was established in mice via caudal vein injection of B16-F10 cells (0.2 ml/mouse). Mice were randomly divided into 4 groups (n=5) according to body weight, and 24 h later they were administrated intragastrically (ig; 0.2 ml/10 g) once a day continuously for 24 d with vehicle (tumor control group), Cyc (30 mg/kg), compound 3 at 0.85 mmol/kg and 1.10 mmol/kg. Mice were weighed and blood was collected by removing the eyeball at 24 h after the last administration. Sacrificed the mice, removed the lung and counted the number of melanoma nodules in lungs of mice under an anatomical lens. Serum obtained after centrifugation at 3000 rpm for 20 min (3K30 refrigerated centrifuge, Sigma, USA) was conserved at −20° C. Levels of TNF-α and IL-1β in serum were measured by ELISA method, which were performed in accordance with the instructions of the kits.
Data were expressed as mean±SD and statistical analysis was performed by SPSS Statistics 17.0 using a one-way analysis of variance (ANOVA) followed by unpaired t-test. A value of P<0.05 was considered statistically significant. The inhibition ratio (IR %) of lung metastasis was calculated as follows: IR %=(Nc−Nt)/Nc×100%, where Nc is the average number of nodules in lung tissues of vehicle, and Nt is that of mice treated with drugs.

[10] = format: in vivo, mouse; details: C57BL/6 mice, before vs 24 d after administration
Method: as §5

[11] = system: TNF-α; format: in vivo, mouse; details: C57BL/6 mice, mean ± s, n = 5
[12] = system: A549 human lung carcinoma cells; assay: Wound healing (two-dimensional migration) assay, A549; format: cell-based; details: A549, 10.00 μmol/l, 36 h (FIG. 1E)
Method: as §3, §4

[13] = read-out: Inhibition against tumor cell colony formation IC50

## C=C1CCC2C(C)(CO)C(O)CCC2(C)C1C=CC1=CC(=Cc2ccc(Cl)cc2)OC1=O (stereo not shown) [Compound 2, 15-p-chlorobenzylidene-14-deoxy-11,12-didehydro-andrographolide]
[1]
  Inhibition of colony formation compared with andrographolide: remarkably stronger than that of andrographolide
[1]; [13]
  IC50: 1.38 µM
[2]
  Inhibitory effect on two-dimensional migration: much stronger than that of other tumor cells
[3]
  Inhibition of two-dimensional migration of ECV304: the most significant one
[4]
  Inhibition of colony formation compared with andrographolide: remarkably stronger than that of andrographolide
[4]; [13]
  IC50: 1.42 µM
[5]
  Inhibition of colony formation compared with andrographolide: remarkably stronger than that of andrographolide
[5]; [13]
  IC50: 2.1 µM
[6]
  Inhibitory effect on two-dimensional migration: much stronger than that of other tumor cells

## C=C1CCC2C(C)(COC(=O)c3cccnc3)C(OC(=O)c3cccnc3)CCC2(C)C1C=CC1=CC(=Cc2ccc(Cl)cc2)OC1=O (stereo not shown) [Compound 3, 15-p-chlorobenzylidene-14-deoxy-11,12-didehydro-3,19-dinicotinate andrographolide]
[7]; 0.85 mmol/kg ig 24 d
  IL-1β in serum: 30.76 ± 3.25 pg/mL
[7]; 1.10 mmol/kg ig 24 d
  IL-1β in serum: 17.86 ± 3.41 pg/mL
[8]
  Inhibitory effect on two-dimensional migration: much stronger than that of other tumor cells
[9]; 0.85 mmol/kg ig 24 d
  IR (%) of lung metastasis: 58.04%
  Lung index: 6.19 ± 0.76 mg/g
  Nodule number (melanoma nodules in lungs): 35.25 ± 14.45
[9]; 0.85 mmol/kg ig 24 d, listed as compound 3
  IR (%) of lung metastasis: 58.04%
[9]; 1.10 mmol/kg ig 24 d
  IR (%) of lung metastasis: 65.18%
  Lung index: 6.39 ± 0.57 mg/g
  Nodule number (melanoma nodules in lungs): 29.25 ± 881**^∇
[9]; 1.10 mmol/kg ig 24 d, listed as compound 3
  IR (%) of lung metastasis: 65.18%
[10]; 0.85 mmol/kg ig
  Average net increase in body weight: 1.64 g
[10]; 1.10 mmol/kg ig
  Average net increase in body weight: 2.00 g
[11]; 0.85 mmol/kg ig 24 d
  TNF-α in serum: 0.52 ± 5.90
[11]; 1.10 mmol/kg ig 24 d
  TNF-α in serum: 11.11 ± 5.96
[12]
  Inhibitory effect on two-dimensional migration: much stronger than that of other tumor cells
